Measured values as given in patent US6335168B1 (priority 1998, dated 2002).

System: A118G variant human mu opioid receptor
Assay type: cell-based
Details: GIRK activation in oocytes

## β-endorphin
  difference of EC50 values between the A118G variant and the most common mu opioid receptors: about three
